Key:
Assay type in all cases: cell-based
C. neoformans lipids = experiment: Incorporation of label into total cellular lipids; conditions: 1 hr, 30° C.
Method: (§1) Cells were incubated with the indicated [^3 H]fatty acid (specific activity=30 Ci/mmol, 100 μCi/ml media) for 1 h at 30° C. After the organisms were pelleted and washed, spheroplasts were prepared and total lipids extracted. Tests were done on two separate occasions. The incorporation of label from each of the oxatetradecanoic acid analogs and from palmitate into total cellular lipids is expressed as a percentage of the total amount of label incorporated from [^3 H]myristate.
(§2) Analysis of the incorporation of exogenous fatty acids into cellular phospholipids and neutral lipids--Five ml cultures were labeled with each of the 5 tritiated fatty acids or with [9,10(n)^3 H]palmitate (30 Ci/mmol) at 30° C. for 60 min (S. cerevisiae and C. albicans) or for 75 min (C. neoformans) as described in the preceding paragraph. S. cerevisiae and C. albicans cells were then pelleted by centrifugation at 4000×g for 5 min. and washed first in water followed by a wash with 1M sorbitol. […]
(§3) Dried lipids were resuspended in 500 μl CHCl3 :MeOH(1:1). A 2 μl aliquot was counted in a scintillation counter to determine the extent of incorporation of label into cellular lipids. […]

C. albicans lipids = experiment: Incorporation of label into total cellular lipids; conditions: 1 hr, 30° C.
Method: as §1, §2, §3

[1] = tested on: C. albicans N-myristoylproteins; experiment: Metabolic labeling of cellular N-myristoylproteins with tritiated fatty acids; conditions: tritiated analog, 1 h, 30° C.
Method: (§4) Cells were labeled for 1 h with fatty acids of equal specific activity. Total cellular proteins were reduced, denatured and subjected to SDS-PAGE. Gels were treated overnight with 1 N hydrocylamine (pH 10) at room temperature followed by EN^3 HANCE. Fluorography was performed at -80° C. The exposure time for all gels was identical (2 weeks) as was the total amount of cellular protein added to each lane (100 μg).
(§5) Analysis of the incorporation of exogenous fatty acids into cellular proteins--Cultures of S. cerevisiae YM2061, C. albicans B311, and C. neoformans L210425 were grown overnight at 30° C. in YPD or SAB broth. In the morning, C. albicans and C. neoformans were diluted to an A600 =0.6. All cultures were subsequently shaken at 30° C. until they achieved an A600 =1.2. A 5 ml aliquot of each culture was then incubated at 30° C. with 100 μCi/ml of either [9,10(n)^3 H]myristate (NEN Research Products, Dupont, Boston, Mass.); [6,7(n)^3 H]4-oxatetradecanoate; [9,10(n)^3 H]6-oxatetradecanoate;[9,10(n)^3 H]11-oxatetradecanoate; or [10,11(n)^3 H]13-oxatetradecanoate (the final specific activity of all tritiated fatty acids=30 Ci/mmol, their final concentration=3.3 μM). The cultures were then chilled on ice for 5 min and the cells harvested by centrifugation at 4000×g for 5 min. The pellet was washed by gentle vortexing in 1 ml of phosphate buffered saline (PBS, maintained at 4° C.). The yeast cells were then pelleted by centrifugation (as above) and broken open by vortexing with 500 μm glass beads in a 200 μl solution containing 240 mM Tris-HCl, pH 6.8, 2% SDS, 0.4% β-mercaptoethanol, 0.002% bromophenol blue, and 10% glycerol. The solution was then boiled for 5 min and cellular debris was removed by centrifugation at 12,000×g for 10 min. One hundred μg [Lowry et al., J. Biol. Chem. 193, 265-275 (1951)] of lysate protein from each sample was subjected to denaturation, reduction and electrophoresis through 12% polyacrylamide gels containing 0.1% SDS [Laemmli, Nature 227, 680-685 (1970)]. Duplicate gels were incubated overnight with 1M Tris, pH 7.4, or 1N hydroxylamine, pH 10. Fluorography was performed by treating gels with EN^3 HANCE (NEN Research Products, Dupont) and, following drying, exposing them to Kodak XAR film at -80° C.

[2] = tested on: C. neoformans N-myristoylproteins; experiment: as above; conditions: tritiated analog, 1 h, 30° C.
Method: as §4, §5

[3] = tested on: S. cerevisiae N-myristoylproteins; experiment: as above; conditions: tritiated analog, 1 h, 30° C.
Method: as §4, §5

CCCCCCCCCCOCCC(=O)O [O4, 4-oxatetradecanoic acid]
label incorporated into C. neoformans lipids, of the amount observed with [3H]myristate (C. neoformans lipids): 27-28%
label incorporated into C. albicans lipids, of the amount observed with [3H]myristate (C. albicans lipids): 27-28%
labeling of C. albicans N-myristoylproteins versus [3H]myristate [1]: more intense labeling
labeling of C. neoformans N-myristoylproteins versus [3H]myristate [2]: comparable labeling
incorporation into the 55 kDa Gpal polypeptide [3]: is incorporated
labeling of S. cerevisiae N-myristoylproteins versus [3H]myristate [3]: more intense labeling
labeling of the 20 kDa Arfs [3]: comparable intensity

From patent US5236955A, “Anti-fungal agent” (Washington University, priority 1992, dated 1993)
